SMILES strings stand for the structures.

In this assay the test system is hCLRN1-YFP. Briefly: Localization of wild-type hCLRN1-YFP in neuromast hair cells of hCLRN1-YFP; clrn1^+/+ larvae treated with SERCA inhibitors. The class given is in vivo, zebrafish. The conditions noted are these: for Effect on pattern of localization of wild-type hCLRN1-YFP to the hair cell's bundle or plasma membrane: clrn1^+/+ larvae treated with TG or ART; for YFP intensity in the ROI in hair bundles (Mean±SEM): clrn1^+/+ larvae, 1 uM TG or 0.4 uM ART + 0.01% DMSO in E3 medium, E3 medium 62.82±2.15. Here is the method: Thapsigargin (TG, 1 mg, Sigma-Aldrich, #T9033) stock in 100% DMSO was diluted in E3 medium to make the required final concentration of the drug. Five different concentrations that were earlier reported to induce ER stress and are non-toxic or lower lethal dose (LD50) in the zebrafish (0.1, 0.5, 1.0, 2.5, 5 μM concentrations) were used in this study. A total of 25 larvae per dosage and treatment duration from the genotypes hCLRN1^N48K-YFP; clrn1^+/+ and hCLRN1-YFP; clrn1^+/+, no older than 72 hours post fertilization (hpf) at the start of the experiment, were placed in a well of 12-well uncoated culture plate (BD Falcon, Canaan, CT). For ER stress induction, larvae were incubated in different dosage of TG from 1 hr to overnight at 28.5° C., followed by three times wash with E3 medium at 28.5° C. (Table 2) and hair cells from the hCLRN1^N48K-YFP; clrn1^+/+ and hCLRN1-YFP; clrn1^+/+ lines were examined for the respective protein distribution pattern in the hair cell bundle and the cell body. Live confocal images of ‘O’ and ‘ML1’ neuromasts per larvae were capture using Leica SP2 confocal microscope with 40× oil immersion objective. Unadjusted 1 micron middle section images of four hair bundles per ML1 neuromast of larvae from TG treated and untreated groups were analyzed using Image J software version v. 1.48 (FIG. 4). The hair bundle trafficked amount of hCLRN1^N48K protein corresponds to the change in YFP intensity in the hair bundle in the TG treated larvae. Quantification of YFP fluorescence intensity was carried out as described in the previous experiment for unconventional trafficking of hCLRN1^N48K-YFP by hGRASP55 cargos. […] Student's t-test was used to confirm the observed changes in the YFP intensity in the hair bundles of TG treatment compared to untreated hCLRN1^N48K-YFP; clrn1^+/+ larvae, is significant (FIG. 4J).
Arthemisinin (ART, 100 mg, Sigma-Aldrich, #361593) in 100% DMSO was diluted in E3 medium to make the final concentration. Five different concentrations within the range of reported ER stress inducing level in the zebrafish (0.1, 0.25, 0.4, 0.5, and 1 μM concentrations) were used in this study. A total of 25 larvae, no older than 72 hpf at the start of the experiment, were placed in a well of 12-well uncoated culture plate (BD 35 Falcon, Canaan, CT). […] From the captured confocal images of these neuromast hair cells, unadjusted 1 micron middle section images of 4 mature hair bundles from ML1 neuromast per larvae were considered for the YFP intensity quantification in unadjusted ROI covering the middle section of each hair bundles using the imageJ software. […] Quantification of YFP fluorescence intensity was carried out as described in the previous experiment for unconventional trafficking of hCLRN1^N48K-YFP by hGRASP55 cargos. […]

`C[C@@H]1CC[C@H]2[C@@H](C)C(=O)O[C@@H]3O[C@@]4(C)CC[C@@H]1[C@]32OO4` [ART, Artemisinin]: the “Effect on pattern of localization of wild-type hCLRN1-YFP to the hair cell's bundle or plasma membrane” value is “did not affect the pattern of localization” and the “YFP intensity in the ROI in hair bundles (Mean±SEM)” value is on record as 71.32±2.05.

For the compound `C/C=C(/C)C(=O)O[C@H]1C(C)=C2[C@H]([C@@H]1OC(=O)CCCCCCC)[C@@](C)(OC(C)=O)C[C@H](OC(=O)CCC)[C@@]1(O)[C@H]2OC(=O)[C@@]1(C)O` [TG, Thapsigargin], the “Effect on pattern of localization of wild-type hCLRN1-YFP to the hair cell's bundle or plasma membrane” value is listed as “did not affect the pattern of localization” and the “YFP intensity in the ROI in hair bundles (Mean±SEM)” value is recorded as 68.57±1.36.

For the origin of these results see US11865103B2, “Methods of treating disorders associated with glycosylation defective proteins” (CASE WESTERN RESERVE UNIVERSITY, priority 2016, dated 2024).
